# Measured values published in US8148347B2, “Inhibition of interaction of PSD93 and PSDS95 with nNOS and NMDA receptors” (The Johns Hopkins University, priority 2000, dated 2012).
# Tests used:
# Male Sprague-Dawley rats [1] = assay: measurement of isoflurane MAC (tail clamp); assay type: in vivo, rat; conditions: for MAC (isoflurane): mean ± SD
# Procedure: The ODNs were dissolved in saline before administration. As described in the previous work,^49 the rats were injected intrathecally with saline (10 μl) (control), antisense ODNs (12.5, 25, 50 μg/10 μl), sense ODN (50 μg/10 μl) and missense ODN (50 μg/10 μl), respectively, followed by an injection of 10 μl of saline to flush the catheter, every 24 h for 4 days.
# On the fifth day after saline or ODNs injection, each rat was placed in a clear plastic cone and anesthetized with 5% isoflurane in oxygen for three to five minutes. After tracheostomy, the trachea of each animal was intubated with a 16-gauge polyethylene catheter. The inspired isoflurane concentration was reduced to 2%, and the animals breathed spontaneously until cannulation of a carotid artery and a jugular vein with PE-50 tubing was accomplished. The isoflurane concentration was decreased further to 1.5%, and ventilation was controlled by a Harvard Animal Respirator (Harvard Apparatus, South Natick, Mass.) adjusted according to the measurement of arterial blood gases to maintain normal partial pressure of oxygen (PO2=91-94 mmHg), partial pressure of carbon dioxide (PCO2=33-41 mmHg) and pH (7.4-7.44). Electrocardiography and systolic and diastolic blood pressure were monitored using a Grass Polygraph (Astroumed Grass, Quincy, Mass.) and Gould Pressure Transducer (Gould, Cleveland, Ohio). Rectal temperature was maintained between 36.5 and 37.5° C. by use of a heating blanket and warming lights.
# A PE-10 catheter was introduced through and beyond the endotracheal tube until obstruction to passage was met and then withdrawn 1 to 2 mm. For isoflurane MAC measurement, the PE-10 catheter was connected to a parameter airway gas monitor (Datex-Engstrom, Inc., Tewksbury, Mass.). After stabilizing about 30 minutes, MAC was measured according to the methods described previously^34 using a long hemostat (8-inch Rochester Dean Hemostatic Forceps) clamped to the first ratchet lock on the tail for 1 min. The tail was always stimulated proximal to a previous test site. Gross movement of the head, extremities, or body was taken as a positive test result, whereas grimacing, swallowing, chewing, or tail flick were considered negative results. The isoflurane concentration was reduced in decrements of 0.12 to 0.15% until the negative response became positive, with 12-15 min equilibration allowed after changes in concentration.^50,51 The MAC was considered to be the concentration midway between the highest concentration that permitted movement in response to the stimulus and the lowest concentration that prevented movement. Finally, intrathecal PE-10 catheter position from each animal was confirmed.
# In some saline-treated rats, after initial baseline MAC determination, NMDA at the dose of 1.25 μg^38 or saline was injected intrathecally in a volume of 10 μl saline, followed by an injection of 10 μl saline to flush the catheter. Fresh NMDA solution was prepared for each experiment. […] At this isoflurane concentration, 10 min after the intrathecal injection of NMDA, the animals were tested again for reactivity to tail clamp. The concentration of isoflurane was increased, and response to tail clamp was checked every 12-15 min thereafter until a negative response was achieved. In some antisense ODN (50 μg)-treated rats, after initial MAC determination, NMDA or saline was also administered intrathecally. The MAC for isoflurane was again determined following the aforementioned procedures.
# Male Sprague-Dawley rats [2] = assay: radiant heat tail-flick test, baseline and NMDA-induced thermal hyperalgesia; assay type: in vivo, rat; conditions: for percentage change of TF latency (baseline tail-flick latency): without NMDA, compared to the control group
# Excerpt: To examine whether PSD-95/SAP90 was required for thermal hyperalgesia triggered through NMDA receptor activation, we made an antisense oligonucletide (OND) corresponding to the PDZ domain nucleotides 241 to 258 (5′-[…]-3′; SEQ ID NO: 1) of rat PSD-95/SAP90 mRNA, as well as the sense OND and missense OND (5′-[…]-3′; SEQ ID NO: 2). All of the ONDs were compared to the Gene Bank database (GenBank accession number M96853) and found not to be complementary to any registered nucleotide sequences. The effects of antisense, sense and missense ONDs on baseline and NMDA-induced tail-flick latencies were assessed. […] To identify that NMDA-induced thermal hyperalgesia was produced specifically through NMDA receptor activation but not non-NMDA receptor activation, we observed the effects of a selective NMDA receptor antagonist, MK-801, and a selective non-NMDA receptor antagonist, DNQX, on NMDA-induced facilitation of the tail-flick reflex. […] In addition, motor weakness or dysfunction was not observed in locomotor tests (including placing reflex, grasping reflex and righting reflex) in any of the treated animals including the antisense groups (data not shown).
# Animal preparation and behavioral testing. All experiments were carried out with the approval of the Animal Care Committee at the Johns Hopkins University and were consistent with the ethical guidelines of the National Institutes of Health and the International Association for the Study of Pain. Male Sprague-Dawley rats (250-300 g) were implanted with an intrathecal PE-10 catheter into the subarachnoid space at the rostral level of the spinal cord lumbar enlargement through an incision at the atlanto-occipital membrane according to the method as described.^25,27 One week or more later, the rats were injected intrathecally with saline or ONDs every 24 h for 4 days. On the fifth day, saline, NMDA, MK-801+NMDA or DNQX+NMDA was given intrathecally. Nociception was evaluated by the radiant heat tail-flick test. The doses and time point of maximal effect of NMDA used in the present study were determined based on a previous study.^24 The tail-flick apparatus (Model 33B Tail Flick Analgesy Meter, IITC Life Science, Woodland Hills, Calif., USA) generated a beam of radiant heat that was focused on the underside of the tail, 5 cm from the tip. A cut-off time latency of 13.5 s was used to avoid tissue damage to the tail. Nociception was assessed by the time required to induce tail-flick after applying radiant heat to the skin of the tail. The latency of reflexive removal of the tail from the heat was measured automatically to the nearest 0.01 s. Tail-flick latency was measured five times, and the basal latency was defined as the mean. Tail-flick data were expressed as percentage change calculated by the formula: (trial latency−baseline latency)/(baseline latency)×100%. Finally, PE-10 catheter position from each animal was confirmed when lumbar enlargement segments were removed for western blot analysis. PCR analysis of PSD-95/SAP90 in rat spinal cord. The cDNA sequences encoding portions of the PSD-95/SAP90 were amplified using the following synthetic OND primers: PSD1 (5′-[…]-3′; SEQ ID NO: 3) and PSD2 (5′-[…]-3′; SEQ ID NO: 4) for amplification of PSD-95/SAP90 codon positions 789-1525. RNA samples (1 μg) from rat spinal cord, brain and muscle were reverse transcribed to generate first-strand cDNA. The PCR reactions were performed for 25 cycles. Each cycle included 30 s at 94° C., 30 s at 55° C., and 30 s at 71° C. The PCR products were directly cloned into the TA cloning vector (Invitrogen Co., San Diego, Calif., USA) and verified by automatic DNA sequencing. Fusion protein construction and preparation. cDNA sequence encoding portion of PSD-95/SAP90 was amplified by PCR and subcloned in-frame into PGEX-2T (GIBCO, Rockville, Md., USA) via the BamHI and EcoRI restriction digest sites. […]
# [3] = 50 μg intrathecal every 24 h for 4 days
# [4] = 50 μg/10 μl intrathecal every 24 h for 4 days + NMDA
substance,measurement,setting,value
"5′-AAGCCCTTGTTCCCATTT-3′ (DNA, backbone and methylation of C not given here; listed as Rattus rattus) [MS, missense OND control, reference compound]",change of the value for isoflurane MAC compared to the control group,Male Sprague-Dawley rats [1]; 50 μg intrathecal,did not significantly change
same,MAC (isoflurane),Male Sprague-Dawley rats [1]; [3],1.13 ± 0.15
same,NMDA-produced facilitation of the tail-flick reflex after pretreatment (attenuated or not),Male Sprague-Dawley rats [2]; 50 μg/10 μl every 24 h for 4 days,not
same,ΔTF latency (%),Male Sprague-Dawley rats [2]; [4],−20.96%
same,percentage change of TF latency (baseline tail-flick latency),Male Sprague-Dawley rats [2],−2.05±1.57%
"5′-TGTGATCTCCTCATACTC-3′ (DNA, backbone and methylation of C not given here; listed as Rattus rattus) [antisense oligonucletide corresponding to the PDZ domain nucleotides 241 to 258 of rat PSD-95/SAP90 mRNA]",decrease from isoflurane control MAC,Male Sprague-Dawley rats [1]; 12.5 μg,1%
same,MAC (isoflurane),Male Sprague-Dawley rats [1]; 12.5 μg intrathecal every 24 h for 4 days,1.15 ± 0.18
same,decrease from isoflurane control MAC,Male Sprague-Dawley rats [1]; 25 μg,18%
same,MAC (isoflurane),Male Sprague-Dawley rats [1]; 25 μg intrathecal every 24 h for 4 days,0.98 ± 0.14
same,decrease from isoflurane control MAC,Male Sprague-Dawley rats [1]; 50 μg,44%
same,MAC (isoflurane),Male Sprague-Dawley rats [1]; [3],0.72 ± 0.05
same,increase in isoflurane MAC after NMDA compared to 50 μg antisense ODN alone,"Male Sprague-Dawley rats [1]; pretreated with 50 μg antisense ODN, intrathecal NMDA 1.25 μg",did not result in a significant increase
same,prevention of the NMDA-induced decrease of the tail-flick latency,Male Sprague-Dawley rats [2]; 25 μg intrathecal,55%
same,NMDA-produced facilitation of the tail-flick reflex after pretreatment,Male Sprague-Dawley rats [2]; 25 μg/10 μl and 50 μg/10 μl every 24 h for 4 days,attenuated
same,ΔTF latency (%),Male Sprague-Dawley rats [2]; 25 μg/10 μl intrathecal every 24 h for 4 days + NMDA,−11.65%
same,prevention of the NMDA-induced decrease of the tail-flick latency,Male Sprague-Dawley rats [2]; 50 μg intrathecal,82%
same,ΔTF latency (%),Male Sprague-Dawley rats [2]; [4],−4.72%
same,percentage change of TF latency (baseline tail-flick latency),Male Sprague-Dawley rats [2],0.44±1.95%
same,tail flick latency in response to NMDA stimulation after recovery,Male Sprague-Dawley rats [2]; recovery for an additional four days after treatment,returned to normal
